According to BindingDB's records for patent US10266550 (The Florida International University Board of Trustees, 2019):

Molecular target: DNA topoisomerase 2-alpha (Homo sapiens, UniProt P11388)
Test: Human Topoisomerase IIalpha Decatenation Inhibition Assay
Method: The samples were incubated for 15 minutes at 37° C. before the addition of 4 μL of a stop buffer containing 5% sarkosyl, 0.25% bromophenol blue, and 25% glycerol. The reactions were then analyzed by electrophoresis in 1% agarose gels containing […] ethidium bromide before being photographed under UV light.

Chain of DNA topoisomerase 2-alpha (P11388 whole entry): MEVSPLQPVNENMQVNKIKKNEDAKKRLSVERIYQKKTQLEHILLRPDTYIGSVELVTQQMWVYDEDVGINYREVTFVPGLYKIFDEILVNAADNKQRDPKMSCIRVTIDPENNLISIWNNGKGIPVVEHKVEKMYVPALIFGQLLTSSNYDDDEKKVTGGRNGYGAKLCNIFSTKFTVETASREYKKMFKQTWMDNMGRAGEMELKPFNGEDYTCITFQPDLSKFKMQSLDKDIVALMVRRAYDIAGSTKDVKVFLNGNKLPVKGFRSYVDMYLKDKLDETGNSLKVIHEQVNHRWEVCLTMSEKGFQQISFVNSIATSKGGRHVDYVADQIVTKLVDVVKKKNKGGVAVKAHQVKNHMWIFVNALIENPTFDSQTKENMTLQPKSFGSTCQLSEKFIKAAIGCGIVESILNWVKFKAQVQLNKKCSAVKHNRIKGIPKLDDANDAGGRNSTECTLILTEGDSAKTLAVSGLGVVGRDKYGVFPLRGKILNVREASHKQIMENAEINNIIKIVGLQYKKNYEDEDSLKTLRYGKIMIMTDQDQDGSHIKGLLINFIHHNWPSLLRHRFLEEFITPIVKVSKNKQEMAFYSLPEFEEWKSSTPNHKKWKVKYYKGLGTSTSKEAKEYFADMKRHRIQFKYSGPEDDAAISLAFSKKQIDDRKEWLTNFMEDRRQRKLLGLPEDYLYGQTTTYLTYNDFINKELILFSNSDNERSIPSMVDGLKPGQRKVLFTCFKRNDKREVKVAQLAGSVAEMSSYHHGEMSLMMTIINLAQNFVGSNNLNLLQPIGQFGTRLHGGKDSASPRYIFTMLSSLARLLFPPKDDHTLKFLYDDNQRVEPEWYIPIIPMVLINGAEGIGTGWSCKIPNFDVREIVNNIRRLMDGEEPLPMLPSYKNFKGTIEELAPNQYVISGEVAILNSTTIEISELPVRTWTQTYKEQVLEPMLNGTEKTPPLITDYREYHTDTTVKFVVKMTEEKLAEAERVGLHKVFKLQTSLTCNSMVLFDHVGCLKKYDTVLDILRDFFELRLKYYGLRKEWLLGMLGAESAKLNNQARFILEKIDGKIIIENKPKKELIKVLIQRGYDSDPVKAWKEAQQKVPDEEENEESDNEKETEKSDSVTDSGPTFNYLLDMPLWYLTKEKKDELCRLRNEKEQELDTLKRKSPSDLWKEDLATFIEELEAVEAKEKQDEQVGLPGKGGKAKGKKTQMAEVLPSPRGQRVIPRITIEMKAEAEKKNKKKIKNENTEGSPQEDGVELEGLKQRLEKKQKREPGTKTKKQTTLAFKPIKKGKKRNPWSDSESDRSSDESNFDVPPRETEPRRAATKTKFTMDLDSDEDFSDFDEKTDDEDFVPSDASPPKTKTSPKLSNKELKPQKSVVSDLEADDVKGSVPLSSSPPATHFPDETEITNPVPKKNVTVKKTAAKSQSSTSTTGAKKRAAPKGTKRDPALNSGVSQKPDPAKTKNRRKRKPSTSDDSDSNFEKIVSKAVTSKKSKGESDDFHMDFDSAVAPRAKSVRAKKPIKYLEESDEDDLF

Row | SMILES | IC50
1 | N[C@H]1CCN(c2c(F)cc3c(=O)c(C(=O)O)cn4c3c2Oc2cc([N+](=O)[O-])ccc2-4)C1 [US10266550, Compound 16] | 2.93 µM
2 | Nc1ccc2c(c1)Oc1c(N3CCNCC3)c(F)cc3c(=O)c(C(=O)O)cn-2c13 [US10266550, Compound 11b] | 2.93 µM
3 | CN1CCN(c2c(F)cc3c(=O)c(C(=O)O)cn4c3c2Oc2cc(N)ccc2-4)CC1 [US10266550, Compound 11a] | 5.85 µM
